From patent US12052991B2, “Substituted pyridinyloxybenzenes and salts thereof and use thereof as herbicidal agents” (Bayer Aktiengesellschaft, priority 2018, dated 2024)

Tests used:
Assay type in all cases: in vivo
[1] = test system: Echinochloa crus-galli (ECHCG); experiment: Herbicidal post-emergence action (Table B1); settings: rated visually after about 3 weeks, 100% = plants have died, 0% = like control plants
Outline: (§1)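 Greenhouse pot-grown weeds in sandy loam, sprayed at the one-leaf stage (2–3 weeks post-sowing) with WP or EC formulations plus 0.5% additive at 600 l/ha water, at 1280 or 320 g/ha. Visual % activity versus untreated controls rated about 3 weeks later (100% = dead).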

Lolium rigidum (LOLRI) [2] = experiment: Herbicidal post-emergence action (Table B2); settings: 1280 g/ha; rated visually after about 3 weeks; 100% = plants have died, 0% = like control plants
Procedure: (§2) Seeds of mono- and dicotyledonous weed plants were placed in plastic pots in sandy loam soil (doubly sown with in each case one species of mono- or dicotyledonous weed plants per pot), covered with soil and cultivated in a greenhouse under controlled growth conditions. 2 to 3 weeks after sowing, the test plants were treated at the one-leaf stage. The compounds of the invention, formulated in the form of wettable powders (WP) or as emulsion concentrates (EC), were applied onto the green parts of the plants as aqueous suspension or emulsion with addition of 0.5% additive at a water application rate of 600 liters per hectare (converted). After the test plants had been kept in the greenhouse under optimum growth conditions for about 3 weeks, the activity of the preparations was rated visually in comparison to untreated controls. For example, 100% activity=the plants have died, 0% activity=like control plants. Tables B1 to B12 below show the effects of selected compounds of the general formula (I) according to Table 1 on various harmful plants and an application rate corresponding to 1280 or 320 g/ha, which were obtained by the experimental procedure mentioned above.

Poa annua (POAAN) [3] = experiment: Herbicidal post-emergence action (Table B3); settings: rated visually after about 3 weeks, 100% = plants have died, 0% = like control plants
Outline: as §1

Setaria viridis (SETVI) [4] = experiment: Herbicidal post-emergence action (Table B4); settings: rated visually after about 3 weeks, 100% = plants have died, 0% = like control plants
Procedure: as §2

[5] = test system: Abutilon theophrasti (ABUTH); experiment: Herbicidal post-emergence action (Table B5); settings: rated visually after about 3 weeks, 100% = plants have died, 0% = like control plants
Outline: as §1

[6] = test system: Amaranthus retroflexus (AMARE); experiment: Herbicidal post-emergence action (Table B6); settings: dosage 1280 g/ha; visual rating about 3 weeks after treatment; 100% = plants have died, 0% = like control plants
Outline: as §1

Stellaria media (STEME) = experiment: Herbicidal post-emergence action (Table B8); settings: visual rating about 3 weeks after treatment, 100% = plants have died, 0% = like control plants
Outline: as §1

Lolium rigidum (LOLRI) [7] = experiment: Herbicidal pre-emergence action, test C (Table C2); settings: dosage 1280 g/ha; visual scoring after about 3 weeks; 100% = plants have died, 0% = like control plants
Source text: Seeds of mono- and dicotyledonous weed plants were placed in plastic pots in sandy loam soil (doubly sown with one species each of mono- or dicotyledonous weed plants per pot) and covered with soil. The compounds of the invention, formulated in the form of wettable powders (WP) or as emulsion concentrates (EC), were then applied onto the surface of the covering soil as aqueous suspension or emulsion with addition of 0.5% additive at a water application rate of 600 liters per hectare (converted). After the treatment, the pots were placed in a greenhouse and kept under good growth conditions for the test plants. After about 3 weeks, the effect of the preparations was scored visually in comparison with untreated controls as percentages. For example, 100% activity=the plants have died, 0% activity=like control plants. Tables C1 to C12 below show the effects of selected compounds of the general formula (I) according to Table 1 on various harmful plants and an application rate corresponding to 1280 or 320 g/ha, which were obtained by the experimental procedure mentioned above.

Poa annua (POAAN) [8] = experiment: Herbicidal pre-emergence action, test C (Table C3); settings: visual scoring after about 3 weeks, 100% = plants have died, 0% = like control plants
Outline: (§3)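 Compounds formulated as WP or EC were sprayed onto soil covering freshly sown weed seeds at 600 L/ha water with 0.5% additive, at 1280 or 320 g/ha. Pots were kept in a greenhouse. After about 3 weeks, damage was scored visually as % versus untreated controls (100% = plants dead).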

Setaria viridis (SETVI) [9] = experiment: Herbicidal pre-emergence action, test C (Table C4); settings: visual scoring after about 3 weeks, 100% = plants have died, 0% = like control plants
Outline: as §3

[10] = test system: Abutilon theophrasti (ABUTH); experiment: Herbicidal pre-emergence action, test C (Table C5); settings: visual scoring after about 3 weeks, 100% = plants have died, 0% = like control plants
Outline: as §3

[11] = test system: Amaranthus retroflexus (AMARE); experiment: Herbicidal pre-emergence action, test C (Table C6); settings: visual scoring after about 3 weeks, 100% = plants have died, 0% = like control plants
Outline: as §3

[12] = test system: Matricaria inodora (MATIN); experiment: Herbicidal pre-emergence action, test C (Table C7); settings: dosage 1280 g/ha; visual scoring after about 3 weeks; 100% = plants have died, 0% = like control plants
Outline: as §3

[13] = test system: harmful plants ABUTH, AMARE, ECHCG, LOLRI, MATIN, POAAN, SETVI, STEME, ALOMY, DIGSA, KCHSC and VERPE; experiment: Herbicidal post-emergence action, summary of Tables B1-B12; settings: application rate of 1280 or 320 g of active ingredient per hectare; summary in words
Outline: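 Greenhouse weeds in sandy loam treated post-emergence at the one-leaf stage, 2–3 weeks after sowing, with WP or EC formulations sprayed with 0.5% additive at 600 L/ha water, 1280 or 320 g/ha. Damage rated visually after about 3 weeks versus untreated controls (0% = like control, 100% = dead).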

[14] = test system: harmful plants ABUTH, AMARE, ECHCG, LOLRI, MATIN, POAAN, SETVI, STEME, ALOMY, DIGSA, KCHSC and VERPE; experiment: Herbicidal pre-emergence action (test C), summary of Tables C1-C12; settings: application rate of 1280 or 320 g of active ingredient per hectare; summary in words
Outline: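 Pre-emergence pot test in sandy loam: WP or EC formulations were sprayed onto the covering soil with 0.5% additive at 600 L/ha water, at 1280 or 320 g/ha. Plants were kept in the greenhouse, and activity was rated visually about 3 weeks later as % versus untreated controls (100% = dead).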

Fc1cccc(Oc2ncc(Cl)cc2Cl)c1-c1cc(C(F)F)no1 [Example 1-21]
90%: Post-emergence action against Setaria viridis (SETVI) (Setaria viridis (SETVI) [4]; 320 g/ha) | Post-emergence action against Amaranthus retroflexus (AMARE) [6] | Pre-emergence action against Abutilon theophrasti (ABUTH) ([10]; dosage 320 g/ha) | Pre-emergence action against Abutilon theophrasti (ABUTH) ([10]; dosage 1280 g/ha) | Pre-emergence action against Matricaria inodora (MATIN) [12]
very good herbicidal activity: herbicidal activity against the harmful plants of Tables B1-B12 in post-emergence treatment [13] | herbicidal activity against the harmful plants of Tables C1-C12 in pre-emergence treatment [14]
100%: Post-emergence action against Echinochloa crus-galli (ECHCG) ([1]; 320 g/ha) | Post-emergence action against Echinochloa crus-galli (ECHCG) ([1]; 1280 g/ha) | Post-emergence action against Lolium rigidum (LOLRI) (Lolium rigidum (LOLRI) [2]) | Post-emergence action against Poa annua (POAAN) (Poa annua (POAAN) [3]; 320 g/ha) | Post-emergence action against Poa annua (POAAN) (Poa annua (POAAN) [3]; 1280 g/ha) | Post-emergence action against Setaria viridis (SETVI) (Setaria viridis (SETVI) [4]; 1280 g/ha) | Post-emergence action against Abutilon theophrasti (ABUTH) ([5]; 320 g/ha) | Post-emergence action against Abutilon theophrasti (ABUTH) ([5]; 1280 g/ha) | Post-emergence action against Stellaria media (STEME) (Stellaria media (STEME); dosage 320 g/ha) | Post-emergence action against Stellaria media (STEME) (Stellaria media (STEME); dosage 1280 g/ha) | Pre-emergence action against Lolium rigidum (LOLRI) (Lolium rigidum (LOLRI) [7]) | Pre-emergence action against Poa annua (POAAN) (Poa annua (POAAN) [8]; dosage 320 g/ha) | Pre-emergence action against Poa annua (POAAN) (Poa annua (POAAN) [8]; dosage 1280 g/ha) | Pre-emergence action against Setaria viridis (SETVI) (Setaria viridis (SETVI) [9]; dosage 320 g/ha) | Pre-emergence action against Setaria viridis (SETVI) (Setaria viridis (SETVI) [9]; dosage 1280 g/ha) | Pre-emergence action against Amaranthus retroflexus (AMARE) ([11]; dosage 320 g/ha) | Pre-emergence action against Amaranthus retroflexus (AMARE) ([11]; dosage 1280 g/ha)
